According to US20190201489A1, “COMPOSITIONS AND METHODS FOR PREVENTING BONE LOSS AND/OR STIMULATING BONE HEALING” (NORTHEAST OHIO MEDICAL UNIVERSITY, priority 2016, published 2019):

Experiments:
ZCCHC6 = ZCCHC6 expression in IL-1β-stimulated chondrocytes; format: cell-based; conditions: human chondrocytes stimulated with IL-1β, n=4
Procedure: (§1) Chondrocytes were derived by enzymatic digestion of human cartilage obtained from OA patients (n=14) undergoing knee joint replacement. Chondrocytes were stimulated with IL-1β (5 ng/ml) or treated with Actinomycin D (5 μg/ml) or NFκB inhibitor SC514 (75 μM) or JNK inhibitor (25 μM). Total RNA from grounded cartilage and from chondrocytes was purified using Qiagen RNeasy kit (Qiagen). Reverse transcription was performed using the Quantitect Reverse Transcription kit and the ZCCHC6 or IL-6 mRNA was quantified using TaqMan assays. SiRNA-mediated depletion of ZCCHC6 in human chondrocytes was used to study the effect on inflammatory cytokine expression using a cytokine array (Ray Biotech). Protein expression of IL-6 was studied using Western immunoblotting and quantified by ELISA in culture supernatants. Results were derived using Sigma Plot 12.3 package and p<0.05 was considered significant.

IL-6 mRNA = IL-6 mRNA expression in chondrocytes by TaqMan assay; format: cell-based; conditions: human chondrocytes stimulated with IL-1β, n=4
Procedure: as §1

## Interleukin-1β [IL-1β]
ZCCHC6
  increase in expression of ZCCHC6: 11.3 fold
IL-6 mRNA
  increase in mRNA of IL-6: 4956 fold
